# Key:
# Assay in all cases: drug sensitivity score (DSS) from 5-dose viability curve (DSS (area-based score, 0 = no response)); higher = more sensitive (stronger viability inhibition); extreme values may be limits of the assay
# [1] = system: MDCK p60AmotL2-inducible + doxycycline (p60AmotL2 expressing); conditions: doxycycline: 10 ng/mL; 72 h
# Method in brief: (§1)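 Two MDCK lines, parental and doxycycline-inducible, received doxycycline at 10 ng/mL in the medium before being plated at 2000 cells/well onto a pre-spotted 384-well oncology library of 528 drugs at five doses (1-10,000 nM). Incubation lasted 72 h at 37 °C. Viability was read by CellTiter-Glo luminescence, scaled per plate between vehicle and positive controls, and converted to drug sensitivity scores through Breeze curve fitting.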
# [2] = system: MDCK wild-type + doxycycline; conditions: doxycycline: 10 ng/mL; 72 h
# Method in brief: as §1
# [3] = system: MDCK wild-type - doxycycline; conditions: doxycycline: none; 72 h
# Method in brief: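 Viability of parental MDCK cells cultured without doxycycline was measured by CellTiter-Glo luminescence and scaled per plate between vehicle and positive controls. The cells had been exposed for 72 h to an oncology library of 528 drugs at five doses (1-10,000 nM). Drug sensitivity scores were calculated from dose-response curve fits in the Breeze pipeline.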
SMILES,drug sensitivity score [1],drug sensitivity score [2],drug sensitivity score [3]
COc1cc(N2CCC(N3CCN(C)CC3)CC2)ccc1Nc1ncc(Cl)c(Nc2ccccc2P(C)(C)=O)n1 [Brigatinib],5.2,2.6,4.1
CC(C)C(=O)Nc1ccc([N+](=O)[O-])c(C(F)(F)F)c1 [Flutamide],0,0,0
C=CCn1c(=O)c2cnc(Nc3ccc(N4CCN(C)CC4)cc3)nc2n1-c1cccc(C(C)(C)O)n1 [AZD1775],12.9,15.9,12.1
c1cc(CN2CCCNCCNCCCNCC2)ccc1CN1CCCNCCNCCCNCC1 [Plerixafor],0.1,0,0
CC(=O)O[C@]1(C(C)=O)CC[C@H]2[C@@H]3C=C(C)C4=CC(=O)CC[C@]4(C)[C@H]3CC[C@@]21C [Megestrol acetate],0,0,0
O=C(O)c1ccc(-c2c[nH]c3ncc(-c4ccccc4)cc23)cc1C1CCCC1,0.8,1,0
N.N.[Cl][Pt][Cl] [Cisplatin],13.5,12.2,5.7
CC[C@@](C)(Nc1ccnc(-c2c[nH]c3ncccc23)n1)C(=O)NCC(F)(F)F [Decernotinib],0,0,0
CN1CCN(CCOc2cc(OC3CCOCC3)c3c(Nc4c(Cl)ccc5c4OCO5)ncnc3c2)CC1 [Saracatinib],19.5,12.6,12.6
Nc1ccn([C@@H]2O[C@H](CO)[C@@H](O)C2(F)F)c(=O)n1 [Gemcitabine],7.7,5.5,2.2
Oc1ccc2c(c1)CC[C@H](c1ccccc1)[C@@H]2c1ccc(OCCN2CCCC2)cc1 [Lasofoxifene],0,0,0
CC[C@@H]1C(=O)N(C)c2cnc(Nc3ccc(C(=O)NC4CCN(C)CC4)cc3OC)nc2N1C1CCCC1 [BI 2536],15.9,15.6,19.9
Cc1cc(Nc2ncnc3ccc(NC4=NC(C)(C)CO4)cc23)ccc1Oc1ccn2ncnc2c1 [Tucatinib],0,0,0
Cc1ncc(-c2ccnc(Nc3ccc(S(C)(=O)=O)cc3)n2)n1C(C)C [AZD-5438],9.1,13.1,9.9
COc1cc2c(Nc3ccc(Cl)c(Cl)c3F)ncnc2cc1OC[C@@H]1C[C@@H]2CN(C)C[C@@H]2C1 [Tesevatinib],18.9,8.5,5.8
COCCNCc1ccc(-c2cc3nccc(Oc4ccc(NC(=O)C5(C(=O)Nc6ccc(F)cc6)CC5)cc4F)c3s2)nc1 [Sitravatinib],1.7,1.2,0
Nc1nccc(-c2c(-c3ccc(F)cc3)ncn2C2CCCCC2)n1,2.3,0.5,0.7
Cc1nc2cccc(N)c2c(=O)n1C1CCC(=O)NC1=O (stereo unspecified) [CC122],0,0,0
Cc1cc(C)c(CNC(=O)c2cc(-c3ccc(CN4CCOCC4)cc3)cc3c2cnn3C2CCCC2)c(=O)[nH]1 [EPZ-5687],0,0,0

SMILES,drug sensitivity score [1],drug sensitivity score [2],drug sensitivity score [3]
COc1cccc2c1c(O)c(C(=O)N(C)c1ccc(C(F)(F)F)cc1)c(=O)n2C [Tasquinimod],0,0,0
C[C@@H]1C=C2C(=O)O[C@@H]3CC[C@H](C1)[C@]23O [Galiellalactone],2.5,2,4.3
CCC(C)n1ncn(-c2ccc(N3CCN(c4ccc(OCC5COC(Cn6cncn6)(c6ccc(Cl)cc6Cl)O5)cc4)CC3)cc2)c1=O (stereo unspecified) [Itraconazole],10.7,7.7,7.9
Nc1ccccc1NC(=O)c1ccc(CNc2nccc(-c3cccnc3)n2)cc1 [Mocetinostat],6.2,8.4,8.1
CN(C)C[C@@H]1CCn2cc(c3ccccc32)C2=C(C(=O)NC2=O)c2cn(c3ccccc23)CCO1 [Ruboxistaurin],5.8,5.5,5.8
CC1(C)CC[C@]2(NC(=O)C(C)(F)F)CC[C@]3(C)[C@H](C(=O)C=C4[C@@]5(C)C=C(C#N)C(=O)C(C)(C)[C@@H]5CC[C@]43C)[C@@H]2C1 [Omaveloxolone],16.7,16.3,17
CCN(CC)CCN(Cc1ccc(-c2ccc(C(F)(F)F)cc2)cc1)C(=O)Cn1c(SCc2ccc(F)cc2)nc(=O)c2c1CCC2 [Darapladib],0,0,0
COCCOc1cnc2ccn([C@H](C)c3nnc4c(F)cc(-c5cnn(C)c5)cn34)c(=O)c2c1 [AMG-337],0,0,0
COc1cc(OC2CCN(C)CC2)ccc1Nc1ncc2c(n1)n(C1CCCC1)c(=O)n2C [AZ 3146],6.3,5.1,5.1
Nc1ccn([C@@H]2O[C@H](CO)[C@@H](O)[C@@H]2O)c(=O)n1 [Cytarabine],4,2.3,1.8
Nc1nc2cc(-c3ccc4ncc(C(=O)N5CCOCC5)n4c3)ccc2o1 [Serabelisib],1.3,0.1,0
NCCNc1ccc(NCCN)c2c1C(=O)c1ccncc1C2=O [Pixantrone],0,0,0
NC(=O)c1cccc2cn(-c3ccc([C@@H]4CCCNC4)cc3)nc12 [Niraparib],2.1,2.3,0.7
CN1C(=O)N[C@H](Cc2c[nH]c3c(Cl)cccc23)C1=O [Necrostatin 2],0,0,0
CNC(=O)c1cccc(-c2ccc3c(N4CCOC[C@@H]4C)nc(N4CCOC[C@@H]4C)nc3n2)c1 [Vistusertib],15.5,10.5,7.5
CC[C@@H]1C(=O)OC[C@@H]1Cc1cncn1C [Pilocarpine],0,0,0
N#Cc1ccc(C(c2ccc(C#N)cc2)n2cncn2)cc1 [Letrozole],0,0,0
O=C(Nc1cccc(Nc2ncc(Br)c(NCCc3cnc[nH]3)n2)c1)N1CCCC1 [BX-912],4.1,0.8,0.1

# Reference: the supplement of paper PMC11003180
